In US20230131376A1, “ADJUVANT-ANTIBIOTIC COMBINATION AGAINST GRAM-NEGATIVE BACTERIA” (University of Notre Dame du Lac, priority 2020, published 2023):
Entries after “also recorded” stand apart in the source; their conditions may differ.

Assays:
[1] = tested on: A. baumannii 4106; experiment: In vitro MIC of tigecycline; format: cell-based; details: Acinetobacter baumannii
Method: Broth microdilution method for MIC determination. […] Aliquots (1 mL) were placed in culture tubes and compound was added from 10 mM stock samples in DMSO, such that compound concentration equaled highest concentration tested (200 μM). Samples were then aliquoted (200 μL) into the first wells of a 96-well plate, with all remaining wells being filled with 100 μL of initial bacterial subculture. Row one wells were mixed five times, before 100 μL was transferred to row two. […] This process was repeated until the final row had been mixed; this served to serially dilute the compound.

[2] = tested on: A. baumannii 4106 infection in G. mellonella larvae; experiment: Galleria mellonella model of A. baumannii infection; format: in vivo; details: 6×10^5 CFU A. baumannii 4106, day 4
Method: Galleria mellonella Assay. G. mellonella larvae (Speedy Worm, Alexandria, Minn.) were used within 10 days of shipment from the vendor. After reception of worms, larvae were kept in the dark at room temperature for at least 24 h. before infection. Larvae weighing between 200 to 300 mg were used in the survival assay. Using a 10 μL glass syringe (Hamilton, Reno, Nev.) fitted with a 30 G needle (Exel International, St. Petersburg, Fla.), a 5 μL solution of the desired compound(s) and concentration(s) were injected into the last left proleg. Colistin was dosed at 50 mg/kg dissolved in DI water, 2-AIs at 50 mg/kg dissolved in DMSO, tigecycline at 100 mg/kg dissolved in DMSO, and DMSO was injected for a negative control. For bacterial injections, 1 mL from an overnight culture of A. baumannii 4106 in Miller LB broth (Fisher Scientific U.S.) was subcultured into 9 mL Miller LB broth and incubated for an additional 3 h before use. The 10 mL solution was centrifuged and washed three times with phosphate buffer solution (PBS, Fisher Scientific U.S.) before diluting to 6×10^5 CFUs in PBS. Then, 2.5 h. after the first injection, a second 5 μL injection containing 6×10^5 CFUs of A. baumannii 4106 was injected into the second to last left proleg. Injected worms were left at room temperature in the dark while being assessed at 24 h intervals over 4 days. […] Experiment was repeated 3 times using 10 larvae per experimental group. No ethics approval was needed for G. mellonella.

[3] = tested on: A. baumannii 17978 +mcr-1; experiment: Colistin potentiation with detergent (Tween 80); format: cell-based; details: adjuvant at 30 μM; 0.01% Tween 80
Text: Broth microdilution method for antibiotic potentiation with detergent.

[4] = tested on: chromosomally colistin resistant K. pneumoniae and A. baumannii strains; experiment: Colistin potentiation stated for the four chromosomally colistin resistant strains together; format: cell-based
Text: (§1) Broth microdilution method for antibiotic potentiation.

[5] = tested on: red blood cells; experiment: Hemolysis assay; format: cell-based, sheep
Method: Hemolysis assay. Hemolysis assays were performed on mechanically defibrinated sheep blood (Hemostat Labs: DSB30). Defibrinated blood (1.5 mL) was placed into a microcentrifuge tube and centrifuged for 10 min at 10,000 rpm. The supernatant was then removed, and the cells were resuspended in 1 mL of phosphate-buffered saline (PBS). The suspension was centrifuged, the supernatant was removed, and cells were resuspended two additional times. The final cell suspension was then diluted 10-fold. Test compound solutions were made in PBS in small culture tubes and then added to aliquots of the 10-fold suspension dilution of blood. PBS was used as a negative control and a zero hemolysis marker. Triton X (a 1% sample) was used as a positive control serving as the 100% lysis marker. Samples were then placed in an incubator at 37° C. while being shaken at 200 rpm for one hour. After one hour, the samples were transferred to microcentrifuge tubes and centrifuged for 10 min at 10,000 rpm. The resulting supernatant was diluted by a factor of 40 in distilled water. The absorbance of the supernatant was then measured with a UV spectrometer at a 540 nm wavelength.

[6] = tested on: A. baumannii 4106; experiment: Colistin potentiation, chromosomally colistin resistant A. baumannii 4106; format: cell-based
Text: as §1

[7] = tested on: K. pneumoniae C3; experiment: Colistin potentiation, chromosomally colistin resistant K. pneumoniae C3; format: cell-based
Text: as §1

[8] = tested on: A. baumannii 3941; experiment: Colistin potentiation, chromosomally colistin resistant A. baumannii 3941; format: cell-based
Text: as §1

[9] = tested on: 4T1 cells; experiment: MTT cell viability assay; format: cell-based, mouse
Method: MTT Cell Viability Assay. 4T1 cells (ATCC Manassas, Va.) were plated at a density of 1×10^4 cells/well in 96-well plates. (Roswell Park Memorial Institute Media 1640, Gibco, Gaithersburg, Md.) supplemented with 10% Fetal Bovine Serum (Gibco), 2 mM GlutaMAX (Gibco) and 50 μM 2-mercaptoethanol (Sigma Aldrich St. Louis, Mo.) and incubated at 37° C. under a 5% CO2 atmosphere in the dark for 18 h. Cell cultures were treated with serial dilutions of compounds in the presence or absence of 1 μg/mL colistin (3 replicates per condition) and incubated for an additional 18 hours. The following control conditions were used: media only (blank), 1% Triton X100 (0% cell viability), 0.5% DMSO (100% cell viability). Each condition was then treated with 10% volume of a 5 mg/mL solution of 3-(4,5-dimethylthiazol-2-yl)-2,5-diphenyltetrazolium bromide (MTT) (Sigma Aldrich) in sterile filtered 1× phosphate buffered saline (PBS) and incubated for 2 h. at 37° C. in 5% CO2, after which the media was aspirated and the resulting formazan crystals were resuspended in 100 μL acidified (4 mM HCl) isopropanol. The 96-well plate was then read at 540 nm on a FLUOstar Optima (BMG Labtech Cary, N.C.) microplate reader. Cell viability was calculated as a percentage using the two previously mentioned controls.

[10] = tested on: K. pneumoniae B9; experiment: Colistin potentiation, chromosomally colistin resistant K. pneumoniae B9; format: cell-based
Text: as §1

[11] = tested on: mcr-1 plasmid containing E. coli, K. pneumoniae, and A. baumannii; experiment: Colistin potentiation stated for all three mcr-1 strains together
[12] = tested on: Francisella philomiragia; details: tested at 50 μM; cited from earlier work
[13] = tested on: E. coli YD626 (parent); experiment: Colistin potentiation, broth microdilution, E. coli YD626 parent; format: cell-based
Text: as §1

[14] = tested on: F. novicida; details: tested at 50 μM; cited from earlier work
[15] = tested on: E. coli YD626 +mcr-1; experiment: Colistin potentiation, broth microdilution, E. coli YD626 +mcr-1; details: no adjuvant
[16] = tested on: A. baumannii 17978 (parent); experiment: Colistin potentiation, broth microdilution, A. baumannii 17978 parent; format: cell-based; details: no adjuvant
Text: as §1

[17] = tested on: K. pneumoniae 2210291 +mcr-1; experiment: Colistin potentiation, broth microdilution, K. pneumoniae 2210291 +mcr-1; details: no adjuvant
[18] = tested on: K. pneumoniae 2210291 (parent); experiment: Colistin potentiation, broth microdilution, K. pneumoniae 2210291 parent; format: cell-based; details: no adjuvant
Text: as §1

[19] = tested on: A. baumannii 17978 +mcr-1; experiment: Colistin potentiation, broth microdilution, A. baumannii 17978 +mcr-1; details: no adjuvant

Molecule: CN(C)c1cc(NC(=O)CNC(C)(C)C)c(O)c2c1C[C@H]1C[C@H]3[C@H](N(C)C)C(O)=C(C(N)=O)C(=O)[C@@]3(O)C(O)=C1C2=O [tigecycline, reference compound]
- MIC [1]: 8 µg/mL
- survival of inoculated worms after 4 days, monotherapy ([2]; 100 mg/kg): 20%

Molecule: O=C(NCCc1c[nH]c2ccc(Br)cc12)Nc1cc(Cl)c(Br)c(Cl)c1 [Compound 9e, 1-(2-(5-bromo-1H-indol-3-yl)ethyl)-3-(4-bromo-3,5-dichlorophenyl)urea]
- colistin sensitization activity in absence and presence of Tween 80 [3]: equipotent colistin sensitization activity in the absence and presence of Tween 80
- resensitization to breakpoint colistin levels, chromosomally resistant strains ([4]; adjuvant at 7.5 μM): resensitized three out of four chromosomally resistant strains; also recorded: resensitized three out of the four strains to breakpoint colistin levels
- colistin MIC with adjuvant, all four chromosomally colistin resistant strains (CLSI breakpoint) ([4]; adjuvant at 20 μM): < 2 µg/mL
- toxicity to red blood cells [5]: generally non-toxic
- colistin MIC with adjuvant ([6]; adjuvant at 7.5 μM): 1 µg/mL
- colistin MIC with adjuvant ([6]; adjuvant at 8 μM): 4 µg/mL
- colistin MIC with adjuvant ([6]; adjuvant at 10 μM): 1 µg/mL
- fold reduction of colistin MIC ([6]; adjuvant at 10 μM): > 2000 fold
- colistin MIC with adjuvant ([6]; adjuvant at 15 μM): 0.5 µg/mL
- colistin MIC with adjuvant ([6]; adjuvant at 20 μM): 0.5 µg/mL
- colistin MIC with adjuvant ([7]; adjuvant at 7.5 μM): 2 µg/mL
- colistin MIC with adjuvant ([7]; adjuvant at 8 μM): 2 µg/mL
- colistin MIC with adjuvant ([7]; adjuvant at 10 μM): 1 µg/mL
- colistin MIC with adjuvant ([7]; adjuvant at 15 μM): 0.5 µg/mL
- colistin MIC with adjuvant ([7]; adjuvant at 20 μM): 0.5 µg/mL
- colistin MIC with adjuvant ([8]; adjuvant at 7.5 μM): 16 µg/mL
- colistin MIC with adjuvant ([8]; adjuvant at 10 μM): 4 µg/mL
- colistin MIC with adjuvant ([8]; adjuvant at 15 μM): 4 µg/mL
- colistin MIC with adjuvant ([8]; adjuvant at 20 μM): 2 µg/mL
- toxicity to the 4T1 cell line [9]: generally non-toxic
- CT50, Compound + colistin ([9]; 4T1 cells, 18 h, with 1 μg/mL colistin, concentration giving 50% cell viability): 64.9 µM
- CT50, Compound alone ([9]; 4T1 cells, 18 h, without colistin, concentration giving 50% cell viability): 94.1 µM
- colistin MIC with adjuvant ([10]; adjuvant at 5 μM, K. pneumoniae B9): 0.5 µg/mL
- fold reduction of colistin MIC ([10]; adjuvant at 5 μM, a chromosomally resistant K. pneumoniae strain (MIC 512 to 0.5 μg/mL)): 1024 fold
- fold reduction of colistin MIC ([10]; adjuvant at 10 μM, K. pneumoniae B9): > 2000 fold
- survival of inoculated worms after 4 days, combination with colistin ([2]; 50 mg/kg compound paired with 50 mg/kg colistin): 47%
- survival of inoculated worms after 4 days, monotherapy ([2]; 50 mg/kg): 0%
- resensitization to colistin, all three mcr-1 containing strains ([11]; adjuvant at 5 μM): resensitized all three mcr-1 containing bacterial strains to colistin
- colistin MIC with adjuvant, all three mcr-1 strains ([11]; adjuvant at 15 μM, susceptibility breakpoint 2 μg/mL): lowered the colistin MIC to the susceptibility breakpoint

Molecule: CCCCc1ccc(C(=O)NCCc2c[nH]c3ccccc23)cc1 [Compound 1a]
- fold reduction in the colistin MIC [12]: 32 fold
- fold reduction of colistin MIC ([13]; adjuvant at 50 μM, parent E. coli strain): 16 fold
- fold reduction in the colistin MIC [14]: two-fold

Molecule: colistin [reference compound]
- colistin MIC, colistin alone [15]: 8 µg/mL
- colistin MIC, colistin alone [16]: 2 µg/mL
- colistin MIC, colistin alone ([6]; no adjuvant): 1024 µg/mL
- colistin MIC, colistin alone ([13]; no adjuvant, E. coli YD626 parent): 1 µg/mL
- colistin MIC, colistin alone [17]: 16 µg/mL
- colistin MIC, colistin alone ([7]; no adjuvant): 512 µg/mL
- colistin MIC, colistin alone ([8]; no adjuvant): 512 µg/mL
- colistin MIC, colistin alone [18]: 1 µg/mL
- colistin MIC, colistin alone ([10]; no adjuvant, K. pneumoniae B9): 512 µg/mL
- survival of inoculated worms after 4 days, monotherapy ([2]; 50 mg/kg): 7%
- colistin MIC, colistin alone [19]: 16 µg/mL
